Experimental data taken from publication PMC5613068, “Resolving distinct molecular origins for copper effects on PAI-1” (Journal of Biological Inorganic Chemistry, 2017).
Read-outs that look alike come from different tables or passages of the source.

Columns and labels:
PAI-1 [1] = biological target: PAI-1; design: method as in PMID 21280128; conditions: read-out: K d of copper binding to PAI-1; cited from earlier work
[2] = biological target: vitronectin SMB domain (Homo sapiens) (UniProt P04004); conditions: cited from earlier work
vitronectin SMB domain (Homo sapiens), sequence (P04004 17-66): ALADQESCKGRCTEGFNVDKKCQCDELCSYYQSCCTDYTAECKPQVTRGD

[3] = biological target: vitronectin (Homo sapiens) (UniProt P04004); conditions: cited from earlier work
vitronectin (Homo sapiens), sequence (P04004 399-478): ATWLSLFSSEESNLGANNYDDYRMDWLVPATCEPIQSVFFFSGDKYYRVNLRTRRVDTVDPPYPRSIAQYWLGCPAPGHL

PAI-1 [4] = biological target: PAI-1; design: method as in PMID 12067733, PMID 10764685; conditions: read-out: K d of VN binding to PAI-1; cited from earlier work
[5] = Metal ion titration gel assay (copper sensitivity of PAI-1 latency, PAI-1/tPA complex densitometry); format: biochemical; conditions: 4 µM PAI-1, 30 min, 37 °C, 50 mM MOPS, 100 mM (NH4)2SO4 pH 7.4, total Cu(II) 5-1000 µM, non-equilibrium
Experimental: To determine the Cu(II) concentrations required to induce accelerated PAI-1 latency, we used a gel-based metal ion titration assay. Serial dilutions of CuSO4 were prepared, resulting in final Cu(II) concentrations ranging from 5 to 1000 μM. […] Incubation with metal was initiated by adding PAI-1 at a final concentration of 4 μM and maintaining the mixture at 37 °C in 50 mM MOPS, 100 mM (NH4)2SO4 pH 7.4 for 30 min. After the 30-min incubation, PAI-1 was mixed in a 1:1 ratio with single-chain tPA (Molecular Innovations). Three control samples (PAI-1, tPA, and PAI-1/tPA) were also tested in which copper is not included. Non-reducing SDS-PAGE dye was added to each sample, followed by boiling for 10 min prior to loading on the gel. The free/latent PAI-1, free tPA, and PAI-1/tPA complex in each sample were separated and visualized by SDS-PAGE electrophoresis in a 4–12% gradient gel (Invitrogen). Samples were subjected to electrophoresis at 150 V for 75 min. SDS-PAGE gels were stained with Coomassie blue dye overnight, followed by three destaining steps of 90 min in deionized water containing 30% methanol and 7.5% glacial acetic acid. Gel pictures were captured using a ChemiDoc XRS molecular imager (Biorad), and gel band densitometry of the PAI-1/tPA complex bands was performed using Imagelab (Biorad). […]

tPA = tPA (Homo sapiens, UniProt P00750); test: PAI-1 activity measurement (inhibition of tPA at varying molar ratios); format: biochemical; conditions: purified active protein
tPA, sequence (P00750 311-562 limits assumed): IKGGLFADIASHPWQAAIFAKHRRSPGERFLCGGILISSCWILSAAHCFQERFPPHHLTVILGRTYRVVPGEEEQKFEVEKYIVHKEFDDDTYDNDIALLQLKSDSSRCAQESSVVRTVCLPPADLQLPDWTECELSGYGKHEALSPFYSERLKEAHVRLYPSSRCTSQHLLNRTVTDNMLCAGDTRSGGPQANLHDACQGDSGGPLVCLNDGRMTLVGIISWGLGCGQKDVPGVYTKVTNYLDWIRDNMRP
Experimental: The activity of wild-type and variant forms of PAI-1 was measured using standard assays. PAI-1 was mixed with tPA at varying molar ratios ranging from 0.25 to 4 (PAI-1:tPA). The inhibitory capacity of PAI-1 was measured in a gel-based assay, wherein the PAI-1/tPA complex at each molar ratio was monitored and quantified by densitometry. PAI-1 inhibition of proteases was also measured in a kinetic assay in which the tPA-substrate (Spectrozyme tPA, Sekisui Diagnostics) was added to the mixture containing PAI-1 and tPA. Cleavage of the p-nitroanaline group of Spectrozyme tPA was detected by absorbance at 405 nm, allowing for the measurement of tPA activity over time at each molar ratio of PAI-1:tPA. […] Latent PAI-1 was generated by dilution in buffer (50 mM sodium phosphate, 300 mM NaCl, 1 mM EDTA, pH 6.25) to a 5 μM concentration, and incubation at 37 °C with light stirring for 6 days. The aforementioned activity measurements were performed to confirm that no active PAI-1 remained in the mixture.

[6] = Isothermal titration calorimetry of Cu(II) binding to PAI-1; conditions: 10 °C; for Kd / K obs: one-site model; for Kd: K d = 1/K obs
Experimental: Isothermal titration calorimetry (ITC) was used to determine the thermodynamic parameters associated with Cu(II) interactions with PAI-1. Active and latent forms of wild-type and variants of PAI-1 were dialyzed into 100 mM MOPS, 250 mM (NH4)2SO4 at 10 °C for 2 h. Because of the relative instability of the H2AH3A variant of PAI-1, our studies on H2AH3A PAI-1 utilized a variant that contained an additional mutation, W175F. […] Residue 175 is not proximal to the N terminus and is not involved in metal ion coordination or its subsequent effects on PAI-1 stability. Copper solutions were prepared by diluting CuSO4 into the matched dialysate buffer. The copper stock concentration was verified using atomic absorbance spectroscopy, and the pH corrected to 7.4 at 10 °C using NaOH. Twenty micromolar PAI-1 (2.2 mL total volume) and copper solution (4 mL) were degassed under vacuum for 10 min at 5 °C prior to loading into the (Malvern) MicroCal VP-ITC. The PAI-1 solution was loaded into the ITC cell (1.394 mL), and the copper solution was loaded into the ITC syringe. The reference and experimental ITC cells were equilibrated to 10 °C prior to the start of the experiment. After a preliminary injection of 2 µL, each additional injection consisted of a 4 µL injection at 120 or 240 s intervals. Experiments were performed at least in duplicate. Control experiments measuring dilution heats were performed in which the copper solution was injected into buffer. The data were baseline corrected using NITPIC software (University of Texas, Southwestern), and fit to either a single-site or two-site non-symmetric binding model in SEDPHAT (National Institutes of Health). The data and fits were represented using GUSSI software (University of Texas, Southwestern).

PAI-1 (from UniProt P05121), sequence (P05121 24-402): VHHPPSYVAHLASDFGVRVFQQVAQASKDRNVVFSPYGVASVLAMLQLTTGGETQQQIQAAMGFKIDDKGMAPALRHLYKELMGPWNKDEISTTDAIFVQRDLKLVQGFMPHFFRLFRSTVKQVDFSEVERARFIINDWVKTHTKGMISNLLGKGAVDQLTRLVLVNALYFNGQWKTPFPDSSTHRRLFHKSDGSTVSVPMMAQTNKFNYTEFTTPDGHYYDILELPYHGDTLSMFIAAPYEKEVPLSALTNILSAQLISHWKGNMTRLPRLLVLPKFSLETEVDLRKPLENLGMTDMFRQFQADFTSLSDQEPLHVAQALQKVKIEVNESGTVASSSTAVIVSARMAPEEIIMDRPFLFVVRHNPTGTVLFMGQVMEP

In the case of `O=S(=O)([O-])[O-].[Cu+2]` [Copper, CuSO4], the Kd (PAI-1 [1]) is listed as ~90 nM.
In the case of PAI-1 (from UniProt P05121), the Kd [2] is listed as 1 nM and the Kd [3] is listed as 0.1 nM.
For “VN: Vitronectin, glycoprotein that binds and stabilizes active PAI-1”, the Kd (PAI-1 [4]) is listed as ~0.1 nM.
With “plasminogen activator inhibitor-1 [Wild-type]” the “Copper sensitivity (midpoint Cu(II) concentration at which 50% PAI-1/tPA complex is observed)” value [5] was 150 µM, the “Copper sensitivity (midpoint Cu(II) concentration at which 50% PAI-1/tPA complex is observed)” value ([5]; listed as wild-type PAI-1) was “approximately 150 µM” and the “molar equivalents of PAI-1 that fully inhibit tPA” value (tPA) was 1.25 molar equivalents. For the same compound, the Kd ([6]; [Cu(II)] 650 µM) was 13 nM, the Kd ([6]; [Cu(II)] 700 µM) was 19 nM and the K obs ([6]; [Cu(II)] 750 µM) was 4.8 (±5.5) × 10^7 M^−1. For the same compound, the Kd ([6]; [Cu(II)] 750 µM) was 20 nM, the K obs ([6]; [Cu(II)] 800 µM) was 4.1 (±2.8) × 10^7 M^−1 and the Kd ([6]; [Cu(II)] 800 µM) was 24 nM. For the same compound, the “average K obs” value ([6]; single-site model, average of replicate data) was 5.4e+07 M⁻¹.
